Results on seven molecules are retold here after patent US12540166B2, “BNIP3 peptides for treatment of reperfusion injury” (Bimyo GmbH, priority 2019, dated 2026).

The test system of one data set is I/R injury. The conditions noted are these: in vivo; cited from earlier work.
The test system of data set [1] is infarct size in STEMI patients. To be noted: cited from earlier work; for infarct size / effect in patients: clinical trials, administered prior to PPCI.
The subject of data set [2] is cancer therapy cardiotoxicity. The conditions noted are these: in vivo; cited from earlier work.
Data set [3] deals with human ventricular cardiomyocytes derived from human induced pluripotent stem cells (humanCM). The data set can be described thus: In vitro reoxygenation after hypoxia in humanCM. In kind it is cell-based. To be noted: 2 h of reoxygenation after hypoxia; for mitochondrial inner membrane depolarization / loss of mitochondrial inner membrane potential: JC-1. The procedure:
Cell culture. Human iPSC-derived ventricular cardiomyocytes (humanCM) were obtained from (axol) and were cultivated according to the manufacture's specification.
To simulate vessel occlusion, cells were incubated in buffer (113 mM NaCl, 4.7 mM KCl, 12 mM HEPES, 1.2 mM MgSO4, 30 mM taurine, 1.3 mM CaCl2), pH 7.4) under 1% O2, 37° C. Reoxygenation was performed in buffer supplemented with 5.5 mM glucose under 21% O2, 37° C.
JC-1 Assay. To analyze mitochondrial inner membrane potential in humanCM cells were stained with 5′,6,6′-tetrachloro-1,1′,3,3′-tetraethylbenzimidazolylcarbocyanin Iodid (JC-1). Cells were incubated with 6 μM JC-1 in media at 37° C. for 30 min. After washing cells with PBS buffer at 37° C. they were fixed with 4% PFA for 15 min at room temperature. DAPI staining was performed and cells were analysed using EVOS FL (life Technologies).

In data set [4] the test system is myocardial infarction model in mice. The data set can be described thus: In vivo myocardial infarction (ischemia/reperfusion) model in mice, infarct size. To be noted: 24 h reperfusion; for effect on infarct size (in words): given 5 min before reperfusion. Here is the method:
(§1) In vivo myocardial infarction model in mice. […] Sodium chloride injection (50 μl) served as control treatment.
Infarct size measurement. For analysis of infarct size, mice were euthanized after 24 hours of reperfusion; hearts were excised and perfused with PBS over 5 min. After perfusion, the LCA was re-ligated in the same location as explicated before. Evans blue dye (1 ml of a 1% solution) was injected into the aorta and coronary arteries for delineation of the ischemic AAR from the non-ischemic zone. The tissue was wrapped in a clear food wrap and stored for one hour in a −20° C. freezer. The heart was then serially sectioned perpendicularly to the long axis in 1 mm slices, and each slice was weighed. The sections were incubated in 1% TTC for 5 min at 37° C. for demarcation of the viable and non-viable myocardium within the risk zone. Infarction, AAR, and non-ischemic left ventricle were assessed with computer-assisted planimetry by an observer blinded to sample identity. The size of the myocardial infarction was expressed as a percentage of the AAR.

Data set [5] concerns transient middle cerebral artery occlusion (tMCAO). The data set can be described thus: Mouse model of focal cerebral reperfusion (tMCAO), brain infarct size. In kind it is in vivo. To be noted: 24 h of reperfusion after 30-min tMCAO, vs vehicle. The procedure:
We subjected mice to 24 h of reperfusion after a 30-min transient middle cerebral artery occlusion (tMCAO). BNIP3-8B treatment immediately post tMCAO markedly reduces the infarct size by 52% (FIG. 12).

For another data set, the target named is BNIP3 (Mus musculus, UniProt O55003). Nature of the data set: BNIP3/TAT-BNIP3-8B overlay assay and docking simulation. To be noted: data not shown. In kind it is binding. The procedure: Docking Simulation. Experiments were performed using Autodock Vina^52 and HADDOCK^53. The structure of BAX (pdb-ID: 4S0O) was taken from the Protein Data Bank, whereas the structure of BNIP3 and peptide BNIP3-8B were modelled using Modeller9.15^47. The template structures correspond to PDB codes 2k7w and 2ka1. The created model was energy minimized using NAMD2.9^54 and the CHARMM36 force field.

A further data set has as its system HL-1 cells. Nature of the data set: Doxorubicin-induced mitochondrial swelling in HL-1 cells (OD540). In kind it is cell-based. The conditions noted are these: 5 μM Doxorubicin given simultaneously, 30 min. Here is the method:
HL-1 cells were cultured in Claycomb medium as per manufacturer's protocol. The cells were treated with 5 μM Doxorubicin and 2 nmol TAT-BNIP3-8B for 30 min.
(§2) Swelling Assay. Mitochondrial swelling was measured by light scattering at 540 nm in a microplate absorbance reader FLUOstar Omega (BMG Labtech) at RT. The final assay volume was 200 μl, containing mitochondria at 0.5 mg/ml in buffer containing 250 mM sucrose, 10 mM HEPES, […], pH 7.4.

Data set [6] deals with BNIP3 and BAX interaction with mitochondria. The data set can be described thus: Mechanistic read-outs in the area at risk of mouse hearts after vessel occlusion and reperfusion. The conditions noted are these: for BNIP3 (and BAX) translocation to / interaction with mitochondria: after 10 min of reperfusion, peptide 5 min before reperfusion. In kind it is in vivo, mice. The procedure:
as §1
Immunoblotting. Tissue and human CM cells were lysed in a RIPS buffer (50 mM Tris-HCl, 150 mM NaCl, 0.5 mM EDTA, 1% NP-40 and protease- and phosphatase inhibitor, pH 7.4). Isolated mitochondria were lysed in a Mito-lyse buffer (200 mM sucrose, 10 mM HEPES, 1 mM EGTA, 1% Triton-X100 and protease- and phosphatase inhibitor, pH 7.4). The lysates were cleared by centrifugation (20.000×g, 15 min, 4° C.). Protein concentrations in supernatant were measured using DC Protein Assay (Bio-Rad). Samples were diluted into 4×LDS sample buffer and 10× Reducing Agent (Invitrogen) and were prepared for SDS-PAGE by heating to 95° C. for 5 min. Equivalent amounts of protein were separated using 4-12% Bis-Tris Gels (Invitrogen), transferred on to nitrocellulose and immunoblotted with primary antibodies. The used secondary antibodies were horseradish peroxidise conjugated goat anti-mouse or anti-rabbit IgG (Invitrogen). Immunoblotting was detected by ECL (Thermo Scientific) and imaged on an Imager 600 (Amersham).
Immunoprecipitation. Immunoprecipitation were performed using protein G-coupled Dynabeads (Invitrogen). 500 μg lysed proteins were incubated with 2 μg antibody over night at 4° C. with shaking in PBS buffer containing 1 mM DTT, 0.005% Brij35 and protease-phosphatase inhibitors. Next day 20 μl Dynabeads were added and the solution was incubated again for 1 h. The precipitated immune complex was washed 2 times and then resuspended in eluation buffer containing LDS-Sample Buffer (1:4) und Reducing Agent (1:10) (Invitrogen) in PBS and heated for 5 min at 95° C. After removal of the Dynabeads the Eluate were analysed via immunoblotting.
Caspase-3 activity was measured using the Caspase 3 Assay Kit from Abcam (#ab39401). Murine hearts were harvested after 30 min ischemia and 4 h reperfusion, area at risk was isolated, lysed in containing buffer and the assay was performed according to manufacturer's instructions.
as §2

The conditions of data set [7]: 37° C. The procedure:
FIG. 8. TAT-BNIP3-8B pharmacokinetics. Fluorescence labelled BNIP3-8B was incubated in human serum (A), plasma (B), and whole blood (C) at 37° C. for indicated time durations and monitored by Western blot. Proteinase K treatment served as control.

Data set [8] deals with myocardial infarction model in swine. The data set can be described thus: In vivo myocardial infarction model in pigs, infarct size. To be noted: 60 min LAD occlusion, 4 h of reperfusion, IV 5 min before reperfusion, vs vehicle. The text has this:
In vivo myocardial infarction model in pigs. Following induction of anesthesia, a small incision was made over the femoral artery and vein; the vessels were isolated. A small opening was made in the artery and a sheath was introduced. In addition, a sheath was placed in the femoral vein or other appropriate vein to allow for emergency drug administration if necessary. A blood sample was taken prior to administration of heparin and was used to establish a baseline Activated Clotting Time (ACT) which was recorded. Subsequently, as directed by the surgeon, heparin (250 to 350 IU/kg) was administered as needed to achieve and maintain an ACT that is two times the level of the baseline ACT. Following the initial bolus of heparin ACT was recorded again and monitored at least every 60 minutes thereafter, until completion of surgery.
An appropriate guide catheter was advanced into the ostium of the left anterior descending artery (LAD) using visual guidance provided by fluoroscopy. Non-ionic contrast was used for all procedures. A balloon catheter was introduced by advancing it through the guide catheter to the left anterior descending (LAD) coronary artery. The balloon was advanced into the coronary arteries through a guide catheter to a suitable place above the 1st diagonal branch of the LAD. […] Incidence supportive drugs and defibrillation were recorded in the study record. […]

The conditions of data set [9]: after reperfusion post vessel occlusion, peptide given 5 min before reperfusion.
Procedure: In vivo myocardial infarction model in mice. Wild-type and Bnip3 deficient (Bnip3^−/−) mice were anesthetized by i.p. injection of ketamine (100 mg/kg) and xylazin (10 mg/kg) and intubated. Mechanical ventilation parameters were set to a tidal volume of 2.1 to 2.5 ml and a respiratory rate of 140 breaths per min using a mouse mini-ventilator. Deep anaesthesia was maintained by adding 2 vol % isoflurane to the ventilation gas. The chest was opened through a lateral thoracotomy (1 cm left lateral incision between the 3rd and 4th ribs). A 6-0 prolene suture was placed around the left coronary artery (LCA) and a piece of soft silicon tubing placed over the artery. Coronary occlusion was achieved by tightening and tying the suture. After 30 min of occlusion, the silicon tubing was removed and the suture left in place. For longer reperfusion times the chest were closed using 4-0 prolene. 2, 6 and 9 nmol (in 50 μl 0.9% sodium chloride) BNIP3 were injected into the left ventricular cavity 5 min before vessel occlusion. Peptides with 20 amino acids (2 nmol/50 μl) and peptides with 8 amino acids (8 nmol/50 μl) in NaCl were injected 5 min before reperfusion. Sodium chloride injection (50 μl) served as control treatment.
Peptides. […] For uptake and binding studies, peptides were labelled with a fluorophore.
The subject of data set [10] is isolated adult cardiomyocytes. To be noted: survival after 24 h. The procedure: FIG. 7. A Uptake of fluorescence labelled TAT-BNIP3-8B in different organs after 5 min of reperfusion post vessel occlusion. TAT-BNIP3-8B was given 5 min before starting reperfusion. B Survival of isolated adult cardiomyocytes treated with TAT-BNIP3-8B and TAT-BNIP3-8C control peptide after 24 h.

For `CC(C)CCC[C@@H](C)[C@H]1CC[C@H]2[C@@H]3CC/C(=N\O)[C@](C)(CCCO)[C@H]3CC[C@]12C` [TRO40303], in the data set with I/R injury, the “infarct size in animal / pre-clinical studies” value was “reduce infarct size”. For the same molecule, the “infarct size / effect in patients” value in data set [1] is reported as “failed to reduce infarct size”. For the same molecule, the “adverse events in patients” value in data set [1] (compared with the placebo arm) is recorded as “more adverse events”.

`COc1ccccc1OCCNCC(O)COc1cccc2[nH]c3ccccc3c12` (stereo not shown) [carvedilol]: the “prevention of cardiotoxicity / cardiomyopathy in cancer patients” value in data set [2] is “failed to show a benefit”.

For the molecule “TAT-BNIP3-8B: TAT PTD covalently attached to WVELHFFN (BNIP3 amino acids 13-20 with Ser-19 to Phe-19 substitution, SEQ ID NO: 8)”, in [3], the “apoptotic and necrotic cell death” value is “markedly inhibits necrotic and apoptotic cell death”; the “mitochondrial inner membrane depolarization / loss of mitochondrial inner membrane potential” value is “markedly inhibits”. Moreover, the “reduction of infarct size” value in [4] (wild-type mice, peptide into left ventricle 5 min before reperfusion, vs vehicle) is “up to 40%”. Further, the “reduction of cerebral infarct size” value in data set [5] came to 52%. In addition, the “binding to BNIP3” value with BNIP3 is “binds to BNIP3”. Moreover, the “mitochondrial swelling (OD540)” value in the data set with HL-1 cells is “prevents mitochondrial swelling”. Also, the “interaction with endogenous BNIP3 / BAX (co-immunoprecipitation)” value in data set [6] (5 min of reperfusion, fluorescence-labelled peptide) is “endogenous BNIP3 and BAX mono, homo- and heterodimers co-immunoprecipitated”. Also, the “down-stream cell death machinery (mitochondrial swelling, BAX activation, cytochrome c release, caspase-3 activity)” value in data set [6] (10 min to 4 h of reperfusion) is “inhibition of the down-stream cell death machinery”. The “BNIP3 (and BAX) translocation to / interaction with mitochondria” value (from here on “BNIP3 … to / interaction with mitochondria”) in [6] was “prevents BNIP3 and BAX translocation to the mitochondria”. In data set [6] (cytosol of area at risk, 10 minutes reperfusion, blue native-PAGE), the BNIP3/BAX oligomerization entry is given as “strongly inhibited”. Moreover, the “half-life in human serum, plasma and whole blood” value in data set [7] is “enables its in vivo inhibitory capacity”. Besides, in data set [8], the “reduction of myocardial infarct size” value was determined as 56%. Also, the “uptake / tissue distribution” value in [9] is “taken up by the heart, spleen and liver and is present in the plasma”. Also, the toxicity in cardiomyocytes entry in [10] was “no signs of overt toxicity”.

For the molecule “TAT-BNIP3-8C: control peptide: BNIP3-8B with Phe-18 to Ala-18 and His-17 to Ala-17 substitutions (WVELAASN)”, in [3], the “apoptotic and necrotic cell death” value is recorded as “not effective”; the “mitochondrial inner membrane depolarization / loss of mitochondrial inner membrane potential” value was “not effective”. Further, the “effect on infarct size (in words)” value in [4] (wild-type mice) is reported as “does not appreciably affect the infarct size”. Besides, in data set [6], the “BNIP3 … to / interaction with mitochondria” value was “does not”.

Regarding “TAT-BNIP3-20C: control peptide: TAT PTD attached to amino acids 42-61 of BNIP3 (LDAQHESGRSSSKSSHCDSP)”, in data set [3], the “apoptotic and necrotic cell death” value is reported as “not effective”; the “translocation of human BNIP3 to mitochondria” value is “not effective”; the “mitochondrial inner membrane depolarization / loss of mitochondrial inner membrane potential” value is given as “not effective”. Also, the “effect on infarct size (in words)” value in data set [4] (wild-type mice) is on record as “not effective”. Moreover, the “BNIP3 … to / interaction with mitochondria” value in data set [6] is reported as “does not”.

Regarding elamipretide, the “infarct size in animal / pre-clinical studies” value with I/R injury is listed as “reduce infarct size”. Besides, in data set [1], the “infarct size / effect in patients” value is reported as “failed to reduce infarct size”.

B1: BNIP3: BNIP3 protein restituted to BNIP3 deficient mice (TAT-BNIP3 doses, FIG. 1C) (protein)
chain: MSQSGEENLQGSWVELHFSNGNGSSVPASVSIYNGDMEKILLDAQHESGRSSSKSSHCDSPPRSQTPQDTNRAEIDSHSFGEKNSTLSEEDYIERRREVESILKKNSDWIWDWSSRPENIPPKEFLFKHPKRTATLSMRNTSVMKKGGIFSADFLKVFLPSLLLSHLLAIGLGIYIGRRLTTSTSTF
On to B1, for which, in data set [4] (BNIP3 deficient (Bnip3−/−) mice), the “infarct size after restitution of BNIP3” value is on record as “infarct sizes comparable to wild-type mice in a dose-dependent manner”. In addition, in [6] (BNIP3 deficient mouse hearts, early phase of reperfusion), the “mitochondrial BAX translocation after addition of BNIP3” value is “restored the BAX translocation”.
